Here are results for 1 molecule from patent publication US20080234345A1, “METHOD FOR REDUCING OR ALLEVIATING INFLAMMATION IN THE DIGESTIVE TRACT” (Gene Logic Inc., priority 2006, published 2008).

The subject of test [1] is NF-κB dependent transcription. Briefly: TNFα-induced activation of NF-κB in recombinant HeLa reporter cells (luciferase). The test is classed as cell-based. The text has this: To test the ACE2 inhibitor GL1001 for anti-inflammatory activity relevant to IBD, effects of the compound on activation of NF-κB dependent transcription by TNFα were examined in recombinant reporter cells containing a construct with a luciferase reporter gene under control of NF-κB dependent regulatory sequences, thereby allowing detection of NF-κB dependent transcription by measuring reporter enzyme using a conventional luciferase activity assay based on detection of generated light.
In particular, HeLa cells (American Type Culture Collection) were grown in Dulbecco's modified Eagles medium (DMEM) supplemented with 10% fetal calf serum and transiently transfected with an NF-κB-luc construct (Stratagene, Inc.), as follows (with all incubation steps at 37 C unless otherwise indicated). Cells were seeded and grown to about 70% confluency in a 10 cm cell culture dish. Plasmid DNA (10 μg) was added to 1 ml serum free DMEM media in a tube. Fugene 6 transfection reagent (30 μl) (Roche) was then pipetted slowly into the tube and the contents were gently mixed by inversion. The mixture was incubated at room temperature for 15 minutes and then added dropwise to cells in one 10 cm dish. Following incubation for 24 hours, cells were detached from the plate with Trypsin-EDTA (Gibco-BRL), transferred to wells in a clear-bottom white 96-well test plate (Fisher) with 100 μl per well serum free DMEM, at a density of 3×10^4 cells per well, and allowed to attach overnight. Compound (GL1001) was then added to wells at a concentration of approximately 0, 0.008, 0.04, 0.2, 1.0 or 5.0 μM, followed immediately by addition of TNFα (R&D) to a final concentration of 20 ng/ml. After incubation for 6 hours, 100 μl of Bright-Glo Luciferase buffer (Promega, Cat# E2610) was added, and the plate was incubated at room temperature, with mild shaking, for 10 min. Bioluminescence was then measured using a Veritas luminometer (Turner BioSystems). Each plotted data point represents the average bioluminescence of 4 independent wells.

Test [2] has as its system dextran sulfate sodium (DSS) induced colitis in mice. Briefly: DSS induced colitis in NF-κB::Luc mice (Example 5). The test is classed as in vivo. To be noted: 100 mg/kg s.c. per day. From the text:
GL1001 was further tested for in vivo anti-inflammatory activity by examining its effects on dextran sulfate sodium (DSS) induced colitis in mice. […] See, e.g., Hollenbach et al. (2004) FASEB J. 18(13):1550-1552. See also Bryne et al. (2006), Current Opinion in Drug Discovery & Development 8(2):207-217 and sources cited therein. These pathologies include predominant left-sided colonic inflammation, prominent regeneration of the colonic mucosa cells with dysplasia leading to colon cancer, shortening of the large intestine, focal crypt damage, and frequent lymphoid hyperplasia in both biological systems. Further, according to Hollenbach et al (2004), supra, DSS-induced colitis in mice has a high value in assessing the efficacy of therapeutic agents commonly used in the treatment of colitis, since all therapeutically beneficial substances in human IBD were also shown to reduce the disease activity in this mouse model.
The study was designed with three groups: control (5 mice), 2.5% DSS alone (10 mice), and 2.5% DSS with GL1001 treatment (100 mg/kg subcutaneously per day) (10 mice). NF-κB::Luc mice were used to measure NF-κB activation as an indicator of inflammatory activity, as described above. In particular, organ specific luciferase activity was measured, in addition to body weight, fluid intake, occult fecal blood, organ weights and neutrophil infiltration (MPO assay). NF-κB::luc BL/6 albino background mice of 6-8 weeks of age were provided with 2.5% dextran sodium sulfate (DSS, MW 40,000; MP Biomedicals) in the drinking water. Mice were weighed, imaged and dosed with GL1001 daily. Fecal samples were collected from the bottom of the cages for each treatment group and tested for fecal consistency and occult blood using Hemocult Tape as directed by the manufacturer (Fisher Scientific) and fluid consumption was measured. At the conclusion of the study, the GI tract was removed, the various sections were cleaned and weighed, tissue samples were prepared for bioluminescent assays and myeloperoxidase (Myeloperoxidase assay kit, Cytostore) to look at neutrophil infiltration.
The mice were weighed and imaged at the time of daily GL1001 or vehicle control administration. Biophotonic images of the mice were acquired each day, as described above, with quantitative abdominal imaging results shown in FIG. 7. […] Water consumption was monitored for all of the animals and similar consumption rates indicate that DSS treated mice were all receiving similar amounts of DSS (FIG. 8).
Inflammatory bowel disease progression was monitored using an inflammatory bowel disease activity index which consists of the sum of percent weight loss, stool consistency and occult fecal blood divided by 3.

Test [3] has as its system DSS-induced NF-κB signaling. Briefly: Subsequent DSS study in NF-κB::Luc mice, oral gavage. The test is classed as in vivo. To be noted: 300 mg/kg/day, twice daily by oral gavage; 2.5% DSS. The text has this: In a subsequent study in NF-κB::Luc mice, 2.5% DSS treatment tended to increase NF-κB signaling, as measured by luciferase expression, in distal colon and mesenteric lymph tissues, although these increases were generally not statistically significant. […] Reasons for lack of effect of GL1001 in this study are not fully understood at present.

In test [4] the test system is NF-κB dependent transcription. Briefly: In vivo basal NF-κB dependent transcription in NF-κB::Luc reporter mice, abdominal imaging. The conditions noted are these: 4 hours. The text has this:
GL1001 was further tested for in vivo anti-inflammatory activity by examining its effects on basal levels of NF-κB dependent transcription in mice engineered in the germline with a construct containing an NF-κB enhancer linked to a luciferase gene (i.e., NF-κB::Luc mice), such that this NF-κB reporter construct is present in all cells of the mice.
More particularly, transgenic NF-κB::Luc mice were generated using three NF-κB response elements from the Igκ light chain promoter fused to a firefly luciferase gene as described by Carlsen et al. (2002) J. Immunol. 168:1441-1446. Pronuclear microinjection of purified construct DNA was used to generate transgenic founders in the C57BL/6 XCBA/J background. Founders were subsequently back crossed to the C57BL/6 albino background. […] Signal data were also quantitated and archived using the Living Image® software. Photons of light were quantitated using an oval region of interest (ROI) of varying sizes depending on the procedure, as described further below.
To test for in vivo effects of GL1001 on basal levels of NF-κB dependent transcription, male NF-κB::Luc mice were subjected to quantitative in vivo imaging of the abdominal area (using a fixed ROI of 2.76×3.7 cm) as described above, immediately before, and at 2, […]

For `CC(C)C[C@H](N[C@@H](Cc1cncn1Cc1cc(Cl)cc(Cl)c1)C(=O)O)C(=O)O` [GL1001, (S,S)-2-[1-carboxy-2-[3-(3,5-dichlorobenzyl)-3H-imidazol-4-yl]-ethylamino]-4-methylpentanoic acid], the “inhibition of TNFα induced activation of NF-κB dependent transcription” value in test [1] (8 nM GL1001, TNFα 20 ng/ml, 6 hours) was “over 80%”. Besides, the “maximal inhibition of TNFα induced activation of NF-κB dependent transcription” value in test [1] (0.2 μM GL1001, TNFα 20 ng/ml, 6 hours) was “over 95%”. Further, the “TNFα induced activation of NF-κB dependent transcription” value in test [1] (all tested concentrations (0.008-5.0 μM)) was “significantly inhibited”. For the same molecule, the “inflammatory bowel disease activity index” value in test [2] (between days 3 and 8) is given as “slight delay”. Further, the “reduction in body weight” value in test [2] (between days 4 and 9, vs DSS only) was “significantly delayed”. Moreover, the “NF-κB-driven luciferase expression, abdominal imaging, DSS only vs DSS+GL1001” value in test [2] (from study day 6) is “non-statistically significant divergence”. Also, the “DSS induced organ weight increases (organ weight/body weight ratio)” value in test [2] (cecum and large intestine (colon)) was “completely prevented”. Further, the “DSS-induced NF-κB signaling (luciferase expression)” value in test [3] is “did not lower”. The “inhibition of basal in vivo levels of NF-κB dependent transcription in abdominal ROI” value in test [4] (300 mg/kg subcutaneous, p<0.01) is listed as “over 40%”; in test [4] (both lower doses, subcutaneous), “lesser but still significant extents”.
